Read-outs that look alike come from different tables or passages of the source.

The record followed here is publication PMC11676834, “Composition of Triterpene Glycosides of the Far Eastern Sea Cucumber Cucumaria conicospermium Levin et Stepanov; Structure Elucidation of Five Minor Conicospermiumosides A3-1, A3-2, A3-3, A7-1, and A7-2; Cytotoxicity of the Glycosides Against Human Breast Cancer Cell Lines; Structure–Activity …” (Marine Drugs, 2024).

Series [1] has as its system human erythrocytes. In words: Hemolytic activity. Format: cell-based. As to conditions: 1 h at 37 °C; for HC50: Erythrocyte, read-out: ED50, Erythrocytes (hemolytic activity). The procedure:
Human blood (B(III) Rh+) was used to obtain erythrocytes by centrifuging 450× g three times for 5 min with phosphate-buffered saline (PBS) (pH 7.4) at 4 °C on centrifuge LABOFUGE 400R (Heraeus, Hanau, Germany). Ice-cold PBS (pH 7.4) was used for resuspension of erythrocytes residue to a final optical density of 1.5 at 700 nm, which was kept on ice. Then, 10 µL of tested compound solution or control (okhotoside A1-1 (7)) were added to 90 µL of erythrocyte suspension in V-bottom 96-well plates and exposed for 1 h at 37 °C. Next, centrifugation at 900× g for 10 min on a laboratory centrifuge LMC-3000 (Biosan, Riga, Latvia), led to separation of layers, and 80 µL of supernatant was carefully decanted and transferred into new flat-plate for each. The values of erythrocyte lysis were measured on microplate photometer Multiskan FC (Thermo Fisher Scientific, Waltham, MA, USA) at λ = 570 nm as hemoglobin concentration in supernatant. The effective dose, causing lysis of 50% erythrocytes (ED50), was calculated with SigmaPlot 14.0 software. All the experiments were carried out in triple repetitions, p ≤ 0.05.

Series [2] is described as follows: in vitro. The following applies: human. Format: cell-based, human. The source says:
(§1) Human erythrocytes were purchased from the Station of Blood Transfusion, Vladivostok. Human mammary epithelial cell line MCF-10A CRL-10317, human breast cancer cell lines T-47D HTB-133, MCF-7 HTB-22, and MDA-MB-231 CRM-HTB-26 were received from ATCC (Manassas, VA, USA). Culturing conditions: medium of RPMI-1640 with 1% penicillin/streptomycin (Biolot, St. Petersburg, Russia) and 10% fetal bovine serum (FBS) (Biolot, St. Petersburg, Russia) for the T-47D cell line; Minimum Essential Medium (MEM) with 1% penicillin/streptomycin sulfate (Biolot, St. Petersburg, Russia) and FBS (Biolot, St. Petersburg, Russia) to a final concentration of 10% for MCF-7 and MDA-MB-231 cells; DMEM/F12 medium with 10% FBS, 20 ng/mL EGF, […] hydrocortisone, 100 ng/mL cholera toxin, 10 μg/mL insulin, and 1% penicillin/streptomycin (BioinnLabs, Rostov-on-Don, Russia) for MCF-10A cell line.
(§2) The concentrations of tested glycosides were 0.1–50 µM; positive controls were cisplatin and okhotoside A1-1 (7). […] Then, the solutions of tested compounds with medium were replaced by 100 µL of fresh medium, and 10 µL of 3-(4,5-dimethylthiazol-2-yl)-2,5-diphenyltetrazolium bromide (MTT) (PanReac, AppliChem, Darmstadt, Germany) stock solution (5 mg/mL) was added to each well and incubated for 4 h, followed by the addition of 100 µL of SDS-HCl solution (1 g SDS/10 mL d-H2O/17 µL 6 N HCl) and further incubated for 18 h. Multiskan FC microplate photometer (Thermo Fisher Scientific, Waltham, MA, USA) was used to measure the absorbance of the converted dye formazan at 570 nm. The concentration caused the 50% cell metabolic activity inhibition (IC50) expresses the cytotoxic activity of each glycoside. The experiments were conducted in triplicate, p ≤ 0.05.

In series [3] the test system is MCF-7 cells. Briefly: cells. Format: cell-based, human. The following applies: MTT, 24 h, read-out: Cytotoxicity, IC50, MCF-7.
Excerpt: as §1
(§3) The concentrations of tested glycosides were 0.1–50 µM; positive controls were cisplatin and okhotoside A1-1 (7). Methodology: to each well of 96-well plates, the cell suspension (180 µL) with solution (20 µL) of tested glycoside in a certain concentration was placed (MCF-10A, MCF-7, T-47D, and MDA-MB-231—7 × 10^3 cells per well) and incubated in the atmosphere with 5% CO2 at 37 °C for 24 h. Then, the solutions of tested compounds with medium were replaced by 100 µL of fresh medium, and 10 µL of 3-(4,5-dimethylthiazol-2-yl)-2,5-diphenyltetrazolium bromide (MTT) (PanReac, AppliChem, Darmstadt, Germany) stock solution (5 mg/mL) was added to each well and incubated for 4 h, followed by the addition of 100 µL of SDS-HCl solution (1 g SDS/10 mL d-H2O/17 µL 6 N HCl) and further incubated for 18 h. Multiskan FC microplate photometer (Thermo Fisher Scientific, Waltham, MA, USA) was used to measure the absorbance of the converted dye formazan at 570 nm. The concentration caused the 50% cell metabolic activity inhibition (IC50) expresses the cytotoxic activity of each glycoside. The experiments were conducted in triplicate, p ≤ 0.05.

For series [4], the system named is T-47D cells. Briefly: cells. As to conditions: MTT, 24 h, read-out: Cytotoxicity, IC50, T-47D. The format is cell-based, human.
Excerpt: as §1, §3

The test system of series [5] is MDA-MB-231 cells. Briefly: cells. The format is cell-based, human.
Excerpt: as §1, §2

Series [6] concerns MDA-MB-231 cells. In words: Colony formation (clonogenic) assay, MDA-MB-231. Format: cell-based, human. The procedure:
The influence of glycosides on colony formation by MCF-10A or MDA-MB-231 cells was tested by the clonogenic assay. Cell density: 0.3 × 10^2/mL for MDA-MB-231 and for MCF-10A cells per well; incubation conditions: 10–12 days, 37 °C, atmosphere with 5% CO2; obtained: visible to eye colonies (at least 50 cells per colony); fixation with methanol (25 min); staining with 0.5% solution of crystal violet (25 min); washing and air-drying of plates. The counting of grown colonies was carried out using a BIO-PRINT-Cx4 Edge-Fixed Pad-Container (Vilber, Collégien, France) using Bio-Vision Software user and service manual-v18.01 (Vilber, Collégien, France). The results are presented as colony inhibition in comparison with the control.

Series [7] relates to MDA-MB-231 cells. Briefly: Wound scratch migration assay. The format is cell-based, human. The following applies: 24 h. The procedure:
Attached to special migration plate plastic bottom MDA-MB-231 cells were separated by a silicone insert (Culture-insert 2 Well 24, ibiTreat). After removing an insert, the gap between the cells was 500 ± 50 μm. Cell debris and floating cells were deleted, and the fresh culture medium was added. Then, cells were treated with various concentrations of glycosides or culture medium only (vehicle control) and left for 24 hrs. Cell migration into the wound area was observed under a fluorescence microscope (MIB-2-FL, LOMO, Russia) with objective 10× magnification.

The test system of series [8] is MCF-10A cells. In words: in vitro. The format is cell-based, human.
Excerpt: as §1, §2

Setting [9] is: 48 h, read-out: Cytotoxicity, IC50, 48 h, MCF-10A.
Setting [10] is: 72 h, read-out: Cytotoxicity, IC50, 72 h, MCF-10A.
The mark [11] stands for this setting: MTT, 24 h, read-out: Cytotoxicity, IC50, MCF-10A.
[12] abbreviates: Homo sapiens, MDA-MB-231, 48 h, read-out: Cytotoxicity, IC50, 48 h, MDA-MB-231.
Where [13] appears, read: Homo sapiens, MDA-MB-231, 72 h, read-out: Cytotoxicity, IC50, 72 h, MDA-MB-231.
Where [14] appears, read: Homo sapiens, MDA-MB-231, MTT, 24 h, read-out: Cytotoxicity, IC50, MDA-MB-231.
[15] abbreviates: Homo sapiens, MDA-MB-231, inhibition out of control, read-out: Inhibition of colony growth of MDA-MB-231 cells.

For `CO[C@@H]1[C@@H](O)[C@H](O[C@@H]2[C@@H](O)[C@H](O[C@H]3[C@H](O)[C@@H](O[C@@H]4OC[C@@H](O)[C@H](O)[C@H]4O)[C@H](O[C@H]4[C@H](O[C@H]5CC[C@]6(C)C7CC[C@]8(C)[C@@H]([C@@](C)(O)[C@H](O)CC=C(C)C)CC[C@@]8(C)C7=CC[C@H]6C5(C)C)OC[C@@H](OS(=O)(=O)[O-])[C@@H]4O)O[C@@H]3C)O[C@H](COS(=O)(=O)[O-])[C@H]2O)O[C@H](CO)[C@H]1O.[Na+].[Na+]` (stereo partly drawn) [Conicospermiumoside A3-1 (1), 3β-O-{3-O-methyl-β-D-glucopyranosyl-(1→3)-6-O-sodium sulfate-β-D-glucopyranosyl-(1→4)-[(1→2)-β-D-xylopyranosyl]-β-D-quinovopyranosyl-(1→2)-4-O-sodium sulfate-β-D-xylopyranosyl}-20R,22R-dihydroxylanosta-7,24-diene], in series [1], the HC50 was 770 ± 70 nM. The IC50 amounted to 30.4 ± 1.05 µM in series [2] (setting [9]); 39 ± 2.15 µM in series [2] (setting [10]); 13.6 ± 0.71 µM in series [2] (setting [11]); 41.7 ± 3.08 µM in series [3] (Homo sapiens, MCF7); 19.9 ± 1.02 µM in series [4] (Homo sapiens, T47D); 2.54 ± 0.09 µM in series [5] (setting [12]). Further, the figures for the IC50 in series [5] (setting [13]) and in series [5] (setting [14]) were 12.4 ± 0.75 µM and 5.93 ± 0.35 µM, respectively. The “Tumor cell selectivity index (SI), IC50 MCF-10A / IC50 MDA-MB-231” value was found to be 2.29 in series [5] (24 h), 11.97 in series [5] (48 h) and 3.14 in series [5] (72 h). In addition, the inhibition at 5 µM in series [6] (setting [15]) came to 99.6%.

For `CO[C@@H]1[C@@H](O)[C@H](O[C@@H]2[C@@H](O)[C@H](O[C@H]3[C@H](O)[C@@H](O[C@@H]4OC[C@@H](O)[C@H](O)[C@H]4O)[C@H](O[C@H]4[C@H](O[C@H]5CC[C@]6(C)C7CC[C@]8(C)[C@@H]([C@@](C)(O)C(=O)CC=C(C)C)CC[C@@]8(C)C7=CC[C@H]6C5(C)C)OC[C@@H](OS(=O)(=O)[O-])[C@@H]4O)O[C@@H]3C)O[C@H](COS(=O)(=O)[O-])[C@H]2O)O[C@H](CO)[C@H]1O.[Na+].[Na+]` (stereo partly drawn) [Conicospermiumoside A3-3 (3), 3β-O-{3-O-methyl-β-D-glucopyranosyl-(1→3)-6-O-sodium sulfate-β-D-glucopyranosyl-(1→4)-[(1→2)-β-D-xylopyranosyl]-β-D-quinovopyranosyl-(1→2)-4-O-sodium sulfate-β-D-xylopyranosyl}-20R-hydroxy,22-oxolanosta-7,24-diene], the HC50 in series [1] came out at 210 ± 20 nM. Further, the IC50 came out at 10.6 ± 0.72 µM in series [2] (setting [9]); 5.27 ± 0.36 µM in series [2] (setting [10]); 11.4 ± 0.58 µM in series [2] (setting [11]); 28.5 ± 1.18 µM in series [3] (Homo sapiens, MCF7); 10.7 ± 0.94 µM in series [4] (Homo sapiens, T47D); 10.1 ± 0.71 µM in series [5] (setting [12]). Also, the results for the IC50 in series [5] (setting [13]) and in series [5] (setting [14]) were 5.18 ± 0.43 µM and 5.62 ± 0.26 µM, respectively. The “Tumor cell selectivity index (SI), IC50 MCF-10A / IC50 MDA-MB-231” value in series [5] (24 h) was determined as 2.03; in series [5] (48 h), 1.05; in series [5] (72 h) it was 1.02. For the same compound, the inhibition at 2 µM in series [6] (Homo sapiens, MDA-MB-231, 2 μM, read-out: Inhibition of colony growth of MDA-MB-231 cells) turned out to be 96.8%; in series [7] (Homo sapiens, MDA-MB-231, 2 μM, read-out: Inhibition of migration of MDA-MB-231 cells as compared with control), 63.7%. For the same compound, in series [6] (setting [15]), the inhibition at 5 µM amounted to 98.8%.

Consider “DS-okhotoside A1-1 [DS-okhotoside A1-1 (7a)]”, for which the “ED50, Erythrocytes (hemolytic activity)” value in series [1] stood at 0.24 ± 0.02 µM. Besides, the IC50 in series [8] (setting [9]) was determined as 5.18 ± 0.28 µM; in series [8] (setting [10]), 3.87 ± 0.24 µM; in series [8] (setting [11]) it was 7.81 ± 0.32 µM; in series [3], 18.8 ± 1.02 µM; in series [4], 7.8 ± 0.31 µM; in series [5] (48 h, read-out: Cytotoxicity, IC50, 48 h, MDA-MB-231), 4.32 ± 0.3 µM. Moreover, the IC50 in series [5] (72 h, read-out: Cytotoxicity, IC50, 72 h, MDA-MB-231) is 2.73 ± 0.18 µM; in series [5] (MTT, 24 h, read-out: Cytotoxicity, IC50, MDA-MB-231), 2.83 ± 0.36 µM. Moreover, the “Tumor cell selectivity index (SI), IC50 MCF-10A / IC50 MDA-MB-231” value worked out at 2.76 in series [5] (24 h), 1.20 in series [5] (48 h) and 1.42 in series [5] (72 h). In addition, the “Inhibition of colony growth of MDA-MB-231 cells” value in series [6] (1 μM, inhibition out of control) worked out at 97.2%. The “Inhibition of migration of MDA-MB-231 cells as compared with control” value in series [7] (0.5 μM) was 61.2%. Also, the “Constraint on cell motility (migration) of MDA-MB-231 cells” value in series [7] (1 μM) is listed as 85%.
